# Measurements from patent US12139487B2, “Compounds and uses thereof” (Foghorn Therapeutics Inc., priority 2022, dated 2024).
# Experiments:
# [1] = system: uveal melanoma and hematologic cancer cell lines versus other tested cell lines; assay: Growth of uveal melanoma, hematological and other cancer cell lines with Compound A (Cell-titer glo, day 3 and day 7, GI50); type: cell-based; details: day 7
# Procedure: Procedure: Uveal melanoma cell lines (92-1, MP41, MP38, MP46), prostate cancer cell lines (LNCAP), lung cancer cell lines (NCI-H1299), and immortalized embryonic kidney lines (HEK293T) were plated into 96 well plates with growth media (see Table 9). […] Cells were incubated at 37 degrees Celsius for 3 days. After three days of treatment, the media was removed from the cells and 30 microliters of TrypLE (Gibco) was added to cells for 10 minutes. Cells were detached from the plates and resuspended with the addition of 170 microliters of growth media. Cells from two DMSO-treated control wells were counted, and the initial number of cells plated at the start of the experiment, were re-plated into fresh-compound containing plates for an additional four days at 37 degrees Celsius. At day 7, cells were harvested as described above. On day 3 and day 7, relative cell growth was measured by the addition of Cell-titer glo (Promega) and luminescence was measured on an Envision plate reader (Perkin Elmer). […] At the time of cell splitting on days 3 and 7, cells were split into new 96 well plates, and fresh compound was added four hours after re-plating.
# [2] = system: uveal melanoma cell lines 92-1 and MP41; assay: Comparison of Compound A with clinical PKC and MEK inhibitors in uveal melanoma cell lines (3 day growth); type: cell-based; details: vs LXS196 and Selumetinib
# Procedure: Procedure: Uveal melanoma cell lines, 92-1 or MP41, were plated in 96 well plates in the presence of growth media (see […]). […] Cells were incubated at 37 degrees Celsius for 3 days. After three days of treatment, cell growth was measured with Cell-titer glow (Promega), and luminescence was read on an Envision plate reader (Perkin Elmer).
# [3] = system: 92-1 uveal melanoma cells (subcutaneous tumors); assay: 92-1 uveal melanoma xenograft tumor growth in nude mice; type: in vivo; details: 3 weeks
# Procedure: Procedure: Nude mice (Envigo) were engrafted subcutaneously in the axillary region with 5×10^6 92-1 uveal melanoma cells in 50% Matrigel. Tumors were grown to a mean of ˜200 mm^3, at which point mice were grouped and dosing was initiated. Mice were dosed once daily by oral gavage with vehicle (20% 2-Hydroxypropyl-β-Cyclodextrin) or increasing doses of Compound C. Tumor volumes and body weights were measured over the course of 3 weeks, and doses were adjusted by body weight to achieve the proper dose in terms of mg/kg. At this time, animals were sacrificed, and tumors were dissected and imaged.
# [4] = system: parental MP41 and PKCi-resistant MP41 uveal melanoma cells; assay: 7-day growth inhibition assay in parental and PKC inhibitor-resistant MP41 cells; type: cell-based; details: FIG. 7A
# Procedure: Procedure: MP41 uveal melanoma cells were made resistant to the PKC inhibitor (LXS196; MedChemExpress), by long-term culture in growth media (see Table 9) containing increasing concentrations of the compound, up to 1 micromolar. After 3 months, sensitivity of the parental MP41 cells and the PKC inhibitor (PKCi)-resistant cells to the PKC inhibitor (LXS196) or the BRG1/BRM ATPase inhibitor (Compound B) was tested in a 7-day growth inhibition assay as described above in Example 6.
# BRM = molecular target: T1, BRM (Homo sapiens, UniProt P51531); assay: ATPase catalytic activity assay (ADP-Glo), BRM; type: biochemical; details: Table 10; for Ratio (BRG1 IC50 (μM) divided by BRM IC50 (μM)): ATPase assay, selectivity BRG1/BRM; for IC50: ATPase catalytic activity assay (ADP-Glo)
# T1 construct: made in house; host or cells: High Five insect cells
# T1 sequence (P51531 whole entry): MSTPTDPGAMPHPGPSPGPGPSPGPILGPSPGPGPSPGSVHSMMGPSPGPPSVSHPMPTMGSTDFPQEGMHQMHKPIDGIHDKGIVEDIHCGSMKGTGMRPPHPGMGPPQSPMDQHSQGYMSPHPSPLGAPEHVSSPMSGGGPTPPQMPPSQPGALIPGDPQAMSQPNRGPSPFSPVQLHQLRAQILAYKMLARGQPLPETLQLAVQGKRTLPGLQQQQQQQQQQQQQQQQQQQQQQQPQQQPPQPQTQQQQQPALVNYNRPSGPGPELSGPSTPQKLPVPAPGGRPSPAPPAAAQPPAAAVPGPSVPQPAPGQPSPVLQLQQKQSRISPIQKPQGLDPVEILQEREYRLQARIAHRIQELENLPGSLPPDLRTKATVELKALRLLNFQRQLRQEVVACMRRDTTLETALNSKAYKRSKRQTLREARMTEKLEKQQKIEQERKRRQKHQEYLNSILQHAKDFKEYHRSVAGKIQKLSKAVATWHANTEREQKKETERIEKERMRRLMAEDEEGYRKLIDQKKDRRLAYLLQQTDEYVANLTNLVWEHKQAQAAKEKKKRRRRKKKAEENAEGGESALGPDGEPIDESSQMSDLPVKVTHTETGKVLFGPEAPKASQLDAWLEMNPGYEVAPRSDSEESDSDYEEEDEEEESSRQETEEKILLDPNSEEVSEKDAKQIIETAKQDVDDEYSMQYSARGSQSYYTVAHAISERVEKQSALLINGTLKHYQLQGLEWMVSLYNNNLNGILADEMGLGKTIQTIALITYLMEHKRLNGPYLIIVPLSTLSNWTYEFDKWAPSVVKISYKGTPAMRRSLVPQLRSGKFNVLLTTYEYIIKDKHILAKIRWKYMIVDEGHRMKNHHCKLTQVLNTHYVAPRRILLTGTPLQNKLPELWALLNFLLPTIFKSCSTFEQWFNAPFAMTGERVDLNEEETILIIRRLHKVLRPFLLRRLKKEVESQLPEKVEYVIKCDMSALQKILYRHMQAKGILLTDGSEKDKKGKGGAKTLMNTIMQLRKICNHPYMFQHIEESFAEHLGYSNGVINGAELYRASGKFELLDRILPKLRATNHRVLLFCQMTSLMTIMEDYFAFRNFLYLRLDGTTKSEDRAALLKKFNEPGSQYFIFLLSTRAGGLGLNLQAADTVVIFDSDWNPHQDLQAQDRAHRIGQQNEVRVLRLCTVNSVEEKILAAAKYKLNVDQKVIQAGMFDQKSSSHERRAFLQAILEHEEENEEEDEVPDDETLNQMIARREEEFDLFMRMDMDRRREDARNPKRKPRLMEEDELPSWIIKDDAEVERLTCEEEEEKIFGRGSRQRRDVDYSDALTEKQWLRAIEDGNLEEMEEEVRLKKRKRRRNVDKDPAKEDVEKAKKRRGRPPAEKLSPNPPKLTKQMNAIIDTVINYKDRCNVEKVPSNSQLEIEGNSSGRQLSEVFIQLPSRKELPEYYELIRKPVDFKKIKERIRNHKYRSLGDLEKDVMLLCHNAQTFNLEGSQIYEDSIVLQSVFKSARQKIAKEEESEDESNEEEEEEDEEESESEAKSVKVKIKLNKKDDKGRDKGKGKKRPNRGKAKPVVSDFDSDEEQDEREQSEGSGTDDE
# Procedure, shortened: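 ADP-Glo luminescence measures ADP produced by BRM ATPase (30 nM) during 1 h at room temperature. ATP is 400 μM, with 20 nM salmon sperm DNA as cofactor. Buffer: 20 mM Tris pH 8, 20 mM MgCl2, 50 mM NaCl, 0.1% Tween-20, 1 mM DTT.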
# BRG-1 = molecular target: T2, BRG-1 (Homo sapiens, UniProt P51532); assay: ATPase catalytic activity assay (ADP-Glo), BRG-1; type: biochemical; details: Table 10, read-out: BRG1 IC50
# T2 construct: made in house; host or cells: High Five insect cells
# T2 sequence (P51532 whole entry): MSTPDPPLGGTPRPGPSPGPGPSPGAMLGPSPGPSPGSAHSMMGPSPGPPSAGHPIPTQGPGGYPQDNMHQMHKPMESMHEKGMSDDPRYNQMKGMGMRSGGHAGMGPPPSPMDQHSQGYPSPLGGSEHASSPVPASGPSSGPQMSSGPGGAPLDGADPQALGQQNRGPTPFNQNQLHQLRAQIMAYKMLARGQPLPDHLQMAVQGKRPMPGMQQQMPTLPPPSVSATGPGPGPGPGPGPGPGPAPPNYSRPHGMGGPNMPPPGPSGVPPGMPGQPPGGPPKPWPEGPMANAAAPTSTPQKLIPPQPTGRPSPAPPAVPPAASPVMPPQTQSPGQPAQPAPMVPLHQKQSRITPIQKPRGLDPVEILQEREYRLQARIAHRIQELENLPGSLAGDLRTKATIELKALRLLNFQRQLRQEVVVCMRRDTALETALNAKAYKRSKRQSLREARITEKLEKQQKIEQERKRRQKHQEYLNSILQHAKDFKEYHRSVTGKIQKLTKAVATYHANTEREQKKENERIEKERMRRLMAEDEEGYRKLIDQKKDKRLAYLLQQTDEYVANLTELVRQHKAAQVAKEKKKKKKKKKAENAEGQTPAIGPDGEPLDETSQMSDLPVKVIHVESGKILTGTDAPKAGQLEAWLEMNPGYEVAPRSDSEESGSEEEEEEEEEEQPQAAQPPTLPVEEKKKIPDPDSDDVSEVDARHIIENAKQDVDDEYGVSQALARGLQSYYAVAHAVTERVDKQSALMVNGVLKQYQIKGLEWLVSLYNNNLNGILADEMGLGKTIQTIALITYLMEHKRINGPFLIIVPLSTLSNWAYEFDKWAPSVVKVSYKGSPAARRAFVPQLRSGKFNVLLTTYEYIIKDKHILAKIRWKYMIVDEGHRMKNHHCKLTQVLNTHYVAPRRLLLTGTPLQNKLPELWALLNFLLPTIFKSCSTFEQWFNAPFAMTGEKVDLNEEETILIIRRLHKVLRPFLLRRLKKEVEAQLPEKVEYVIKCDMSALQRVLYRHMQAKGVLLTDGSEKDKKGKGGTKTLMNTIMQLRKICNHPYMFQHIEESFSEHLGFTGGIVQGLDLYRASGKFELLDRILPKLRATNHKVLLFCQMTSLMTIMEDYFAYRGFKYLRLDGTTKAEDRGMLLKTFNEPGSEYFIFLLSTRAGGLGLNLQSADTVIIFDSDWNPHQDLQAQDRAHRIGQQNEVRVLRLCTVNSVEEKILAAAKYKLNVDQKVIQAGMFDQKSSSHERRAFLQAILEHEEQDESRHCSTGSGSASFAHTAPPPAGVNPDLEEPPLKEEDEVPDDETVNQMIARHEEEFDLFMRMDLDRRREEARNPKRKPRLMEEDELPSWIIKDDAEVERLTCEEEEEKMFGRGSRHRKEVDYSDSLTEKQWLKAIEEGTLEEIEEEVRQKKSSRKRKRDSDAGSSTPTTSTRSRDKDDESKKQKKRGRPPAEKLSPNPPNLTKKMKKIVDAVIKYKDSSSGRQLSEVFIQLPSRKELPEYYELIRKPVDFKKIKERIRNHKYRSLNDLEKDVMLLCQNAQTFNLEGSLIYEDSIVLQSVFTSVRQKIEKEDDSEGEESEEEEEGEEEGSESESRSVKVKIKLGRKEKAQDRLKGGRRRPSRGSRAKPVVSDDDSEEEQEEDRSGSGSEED
# Procedure, shortened: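 In this in vitro format, BRG-1 hydrolysis product ADP is detected via a two-step ADP-Glo workup (ATP removal, then ADP-to-ATP conversion with luciferase detection) followed by a luminescence read.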
Compound,Ratio (BRG1 IC50 (μM) divided by BRM IC50 (μM)) (BRM),IC50 (BRM) [nM],IC50 (BRG-1) [nM],other results
CSCC[C@H](NC(=O)c1ccc(N)cc1)C(=O)Nc1nc(-c2cccc(-c3ccncc3)c2)cs1 [Compound A],,,,"duration of growth inhibition [1]: maintained through day 7; growth inhibition compared with clinical PKC and MEK inhibitors ([2]; 3 days, FIG. 2A, 2B): comparable growth inhibition; onset of inhibition compared with clinical PKC and MEK inhibitors [2]: faster onset of inhibition"
"C[C@@H]1CN(c2cccc(-c3csc(NC(=O)CNC(=O)c4ccn(C(C)(C)C)c4)n3)n2)C[C@H](C)O1 [Compound C, 1-(tert-butyl)-N-(2-((4-(6-(cis-2,6-dimethylmorpholino)pyridin-2-yl)thiazol-2-yl)amino)-2-oxoethyl)-1H-pyrrole-3-carboxamide]",,,,"tumor response at the highest dose ([3]; 50 mg/kg, once daily oral gavage): tumor regression; tolerability / body weight ([3]; all treatments, FIG. 8C): well tolerated with no body weight loss observed; tumor growth inhibition ([3]; once daily oral gavage, increasing doses, FIG. 8A, 8B): tumor growth inhibition in a dose-dependent manner"
CC1(N)CCN(c2cccnc2NC(=O)c2nc(-c3ncccc3C(F)(F)F)cnc2N)CC1 [LXS196],,,,growth of PKCi-resistant cells relative to parental MP41 cell line [4]: could tolerate growth at higher concentrations of LXS196
[2H]C1([2H])Oc2c(F)cc(C(=O)NCc3cc4nc(-c5ccc(OC(F)F)c(C6CC6)n5)ccc4cn3)cc2S(=O)(=O)[C@@]([2H])(F)C1([2H])[2H] [Compound 186],16.18,5.7,102,
COc1cc2c(nc1C(F)F)N(c1ccc3cnc(CNC(=O)c4cc(F)c5c(c4)S(=O)(=O)[C@@H](F)CCO5)cc3n1)CCO2 [Compound 81],14.31,3,46.7,
O=C(NCc1cc2nc(N3CCOc4ccc([C@H]5C[C@@H]5C(F)F)nc43)ccc2cn1)c1cc(F)c2c(c1)S(=O)(=O)[C@@H](F)COC2 [Compound 26],21.77,1.7,39.1,
O=C(NCc1cc2nc(N3CCOc4ccc([C@H]5C[C@@H]5F)nc43)ccc2cn1)c1cc(F)c2c(c1)S(=O)(=O)[C@@H](F)COC2 [Compound 132],17.90,4.5,77.2,
C[C@@H]1CCN1c1cnc2c(c1)OCCN2c1ccc2cnc(CNC(=O)c3cc(Br)c4c(c3)S(=O)(=O)[C@@H](F)CCO4)cc2n1 [Compound 299],29.29,9.9,295,
CCOc1ccnc2c1OCCN2c1ccc2cnc(CNC(=O)c3cc(F)c4c(c3)S(=O)(=O)[C@@H](F)COC4)cc2n1 [Compound 11],9.50,1.4,14.2,
O=C(NCc1cc2nc(N3CCOc4cc(N5CCC[C@H](F)C5)cnc43)ccc2cn1)c1cc(F)c2c(c1)S(=O)(=O)[C@@H](F)CCO2 [Compound 286],20.51,9.6,196,
CO[C@H]1C[C@H]1c1cnc2c(c1)OCCN2c1ccc2cnc(CNC(=O)c3cc(F)c4c(c3)S(=O)(=O)[C@@H](F)CCO4)cc2n1 [Compound 45],12.59,2.1,25.8,
COc1nc(C(F)F)ccc1-c1ccc2cnc([C@H](C)NC(=O)c3ccc4c(c3)S(=O)(=O)[C@@H](F)CCOC4)cc2n1 [Compound 122],10.93,4.2,45.9,
Cc1cc(C(=O)NCc2cc3nc(N4CCOc5cc(N6CC[C@H]6C)cnc54)ccc3cn2)cc2c1OCC[C@H](F)S2(=O)=O [Compound 160],17.82,5.1,76,
"C[C@@H]1CN(c2cncc(-c3ccc4cnc(CNC(=O)c5cc(F)c6c(c5)S(=O)(=O)[C@@H](F)CCO6)cc4c3)n2)C[C@H](C)O1 [Compound 19, (4R)—N-[[6-[6-[(2S,6R)-2,6-dimethylmorpholin-4-yl]pyrazin-2-yl]-3-isoquinolyl]methyl]-4,9-difluoro-5,5-dioxo-3,4-dihydro-2H-1,5λ6-benzoxathiepine-7-carboxamide]",13.20,1.6,20.7,
O=C(NCc1cc2nc(N3CCOc4cc(F)c(C(F)F)nc43)ccc2cn1)c1cc(F)c2c(c1)S(=O)(=O)[C@@H](F)CCO2 [Compound 304],15.65,10.1,158,
O=C(NCc1cc2nc(N3CCOc4cc(N5C[C@@H](F)[C@H](F)C5)cnc43)ccc2cn1)c1cc(F)c2c(c1)S(=O)(=O)[C@@H](F)CCO2 [Compound 66],24.64,2.6,78.5,
COc1nc(C(F)F)ccc1-c1ccc2cnc(CNC(=O)c3cc(Cl)c4c(c3)S(=O)(=O)[C@@H](F)CCO4)cc2n1 [Compound 306],32.74,10.3,360,
COCCOc1ccnc2c1CCCN2c1ccc2cnc(CNC(=O)c3cc(F)c4c(c3)S(=O)(=O)[C@@H](F)CCO4)cc2n1 [Compound 189],16.84,5.8,107,
O=C(NCc1cc2nc(N3CCOc4cc(N5C[C@@H](F)[C@H](F)C5)cnc43)ccc2cn1)c1cc(Cl)c2c(c1)S(=O)(=O)[C@@H](F)COC2 [Compound 121],13.86,4.1,56.7,
O=C(NCc1cc2nc(-c3cccc(OC(F)F)n3)ccc2cn1)c1ccc2c(c1)S(=O)(=O)[C@@H](F)CCOC2 [Compound 42],13.35,2,27,
COc1cnc2c(c1)CCCN2c1ccc2cnc(CNC(=O)c3cc(F)c4c(c3)S(=O)(=O)[C@@H](F)CCO4)cc2c1 [Compound 305],12.14,10.3,125,
O=C(NCc1cc2nc(N3CCOc4cc(CC(F)F)cnc43)ccc2cn1)c1cc(F)c2c(c1)S(=O)(=O)[C@@H](F)CCO2 [Compound 145],16.05,4.8,77.2,
